This test relates to fungal pathogen. In words: Control treatments with processing aids alone on young plants inoculated with fungal pathogen. The format is in vivo. The settings on record: applied alone at final rates similar to those in the pellet fractions; compared with UTC plants. From the text:
GEROPON® (SDOS) and C12EO25 were also each applied to young plants at final rates similar to those in the pellet fractions. The young plants were later inoculated with fungal pathogen and the each plant was scored for percent control of the pathogen relative to the UTC plants.

With “polyoxyethylene (25) dodecyl ether [C12EO25]”, the inherent antifungal activity result was “no inherent antifungal activity”.

The record behind these values is patent US10703775B2, “Method of purifying antifungal compounds and exopolysaccharides from a microbial cell culture” (Bayer CropScience LP, priority 2016, dated 2020).
